Data: ChEMBL document CHEMBL5370656, “Structure-Activity Relationship and Biological Investigation of a REV-ERBα-Selective Agonist SR-29065 (34) for Autoimmune Disorders” (J Med Chem, 2023)
Calls of active or inactive are those of the source. The calls are words filed in the database; no cut-off is given here.

Legend:
[1] = Metabolic stability in mouse liver microsome assessed as half life; type: ADME; conditions: liver microsomes
[2] = Metabolic stability in human liver microsome assessed as half life; type: ADME; conditions: liver microsomes
[3] = target: T1, Nuclear receptor subfamily 1 group D member 1 (Homo sapiens, UniProt P20393); experiment: Agonist activity at his6-tagged human REV-ERBalpha LBD (281 to 614 residues) expressed in Escherichia coli assessed as increase in SMRT corepressor peptide […] by TR-FRET assay incubated for 2 hrs by TR-FRET assay
T1 sequence (P20393 whole entry): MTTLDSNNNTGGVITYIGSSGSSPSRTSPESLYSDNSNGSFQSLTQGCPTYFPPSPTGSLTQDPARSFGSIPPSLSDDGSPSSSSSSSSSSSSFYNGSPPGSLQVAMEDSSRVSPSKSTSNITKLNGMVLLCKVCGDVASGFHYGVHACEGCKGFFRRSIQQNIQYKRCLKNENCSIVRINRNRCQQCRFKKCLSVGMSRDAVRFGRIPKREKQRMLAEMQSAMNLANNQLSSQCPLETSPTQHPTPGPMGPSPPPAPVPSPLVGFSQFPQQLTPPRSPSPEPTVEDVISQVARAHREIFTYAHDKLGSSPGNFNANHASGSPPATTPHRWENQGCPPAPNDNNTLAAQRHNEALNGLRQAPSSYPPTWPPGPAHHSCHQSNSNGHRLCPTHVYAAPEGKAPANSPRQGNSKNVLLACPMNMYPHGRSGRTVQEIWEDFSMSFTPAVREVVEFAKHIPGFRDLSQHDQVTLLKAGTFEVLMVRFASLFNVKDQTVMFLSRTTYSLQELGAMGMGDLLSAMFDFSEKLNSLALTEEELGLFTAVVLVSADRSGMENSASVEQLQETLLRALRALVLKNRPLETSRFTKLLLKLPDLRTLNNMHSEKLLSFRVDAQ

CYP3A4 = CYP3A4 (Homo sapiens, UniProt P08684); experiment: Inhibition of CYP3A4 (unknown origin) at 10 uM relative to control; type: ADME
[4] = Cmax in mouse at 50 mg/kg, ip measured at 2 hrs; type: ADME, organism-based; parameters: dose 50 mg/kg, time 2 hrs, route ip; conditions: in vivo
[5] = Cmax in mouse at 50 mg/kg, ip measured for 12 hrs; type: ADME, organism-based; parameters: time 12 hrs, dose 50 mg/kg, route ip; conditions: in vivo
[6] = target: T1, Nuclear receptor subfamily 1 group D member 1; experiment: Agonist activity at REV-ERBalpha LBD in HEK293 cells co-transfected with pG5-UAS pCMV-Gal4 incubated for 18 hrs by multimode plate reader analysis; type: cell-based
[7] = target: T2, Nuclear receptor subfamily 1 group D member 2 (Homo sapiens) (UniProt Q14995); experiment: Agonist activity at human REV-ERBbeta
T2 sequence (whole entry): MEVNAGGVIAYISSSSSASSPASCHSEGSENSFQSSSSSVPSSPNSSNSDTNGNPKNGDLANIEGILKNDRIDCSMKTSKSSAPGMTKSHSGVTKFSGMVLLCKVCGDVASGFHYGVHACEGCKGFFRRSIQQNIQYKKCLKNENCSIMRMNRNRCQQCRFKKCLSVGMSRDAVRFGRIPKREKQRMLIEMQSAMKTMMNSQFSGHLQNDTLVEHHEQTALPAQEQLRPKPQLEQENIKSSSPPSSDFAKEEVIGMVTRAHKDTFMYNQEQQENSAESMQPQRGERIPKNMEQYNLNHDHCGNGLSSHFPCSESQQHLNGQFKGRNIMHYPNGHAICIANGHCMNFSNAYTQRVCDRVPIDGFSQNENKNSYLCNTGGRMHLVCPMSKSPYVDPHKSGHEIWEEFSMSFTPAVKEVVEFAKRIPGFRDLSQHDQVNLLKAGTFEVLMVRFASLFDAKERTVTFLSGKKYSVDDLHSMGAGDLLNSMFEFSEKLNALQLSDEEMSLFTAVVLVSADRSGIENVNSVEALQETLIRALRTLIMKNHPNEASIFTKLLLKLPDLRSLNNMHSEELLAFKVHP

CYP2D6 = CYP2D6 (Homo sapiens, UniProt P10635); experiment: Inhibition of CYP2D6 (unknown origin) at 10 uM relative to control; type: ADME
CYP1A2 = target: T3, CYP1A2 (Homo sapiens, UniProt P05177); experiment: Inhibition of CYP1A2 (unknown origin) at 10 uM relative to control; type: ADME
T3 sequence (P05177 whole entry): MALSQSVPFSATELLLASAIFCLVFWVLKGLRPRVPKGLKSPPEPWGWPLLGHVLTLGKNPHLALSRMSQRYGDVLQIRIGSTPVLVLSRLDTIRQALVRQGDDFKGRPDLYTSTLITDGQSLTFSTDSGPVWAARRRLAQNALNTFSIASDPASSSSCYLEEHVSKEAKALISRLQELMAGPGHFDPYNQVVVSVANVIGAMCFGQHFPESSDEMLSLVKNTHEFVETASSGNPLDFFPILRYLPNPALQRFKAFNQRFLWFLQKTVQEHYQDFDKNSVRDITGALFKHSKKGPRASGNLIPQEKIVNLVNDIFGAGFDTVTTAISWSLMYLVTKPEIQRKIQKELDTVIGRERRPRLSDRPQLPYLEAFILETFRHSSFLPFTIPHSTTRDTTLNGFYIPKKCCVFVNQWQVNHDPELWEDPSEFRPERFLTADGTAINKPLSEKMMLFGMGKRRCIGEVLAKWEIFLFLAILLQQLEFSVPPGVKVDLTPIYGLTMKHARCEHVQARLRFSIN

CYP2C9 = CYP2C9 (Homo sapiens, UniProt P11712); experiment: Inhibition of CYP2C9 (unknown origin) at 10 uM relative to control; type: ADME
Mus musculus [8] = experiment: Protection against experimental autoimmune encephalomyelitis C57BL/6 mouse model assessed as disease onset at 25 to 50 mg/kg, ip bid; type: functional, organism-based; conditions: dose 25-50 mg/kg
Mus musculus [9] = experiment: Protection against experimental autoimmune encephalomyelitis C57BL/6 mouse model assessed as reduction in disease severity at 25 to 50 mg/kg, ip bid; type: functional, organism-based; conditions: dose 25-50 mg/kg
[10] = Toxicity in experimental autoimmune encephalomyelitis C57BL/6 mouse model assessed as animal weight loss at 25 to 50 mg/kg, ip bid; type: organism-based; conditions: in vivo, dose 25-50 mg/kg
Mus musculus [11] = experiment: Protection against experimental autoimmune encephalomyelitis C57BL/6 mouse model assessed as decrease in frequency of T cells at 25 to 50 mg/kg, ip bid by flow cytometry analysis; type: functional, organism-based; conditions: T-cell, dose 25-50 mg/kg
Mus musculus [12] = experiment: Protection against experimental autoimmune encephalomyelitis C57BL/6 mouse model assessed as decrease in number of T cells at 25 to 50 mg/kg, ip bid by flow cytometry analysis; type: functional, organism-based; conditions: T-cell, dose 25-50 mg/kg
Mus musculus [13] = experiment: In-vivo agonist activity at REV-ERBalpha in experimental autoimmune encephalomyelitis C57BL/6 mouse model assessed as reduction in bmal1 mRNA expression by RT-PCR analysis; type: functional
Mus musculus [14] = experiment: In-vivo agonist activity at REV-ERBalpha in experimental autoimmune encephalomyelitis C57BL/6 mouse model assessed as reduction in clock mRNA expression by RT-PCR analysis; type: functional
Th17 = experiment: Downregulation of IL-17A expression in human Th17 cells; type: functional, cell-based; conditions: dose 1.25-10 µM
[15] = Cytotoxicity against human Th17 cells assessed as reduction in cell viability at 1.25 to 10 uM; type: toxicity, cell-based; conditions: th17, 10 µM, dose 1.25-10 µM

CYP3A4, sequence (P08684 whole entry): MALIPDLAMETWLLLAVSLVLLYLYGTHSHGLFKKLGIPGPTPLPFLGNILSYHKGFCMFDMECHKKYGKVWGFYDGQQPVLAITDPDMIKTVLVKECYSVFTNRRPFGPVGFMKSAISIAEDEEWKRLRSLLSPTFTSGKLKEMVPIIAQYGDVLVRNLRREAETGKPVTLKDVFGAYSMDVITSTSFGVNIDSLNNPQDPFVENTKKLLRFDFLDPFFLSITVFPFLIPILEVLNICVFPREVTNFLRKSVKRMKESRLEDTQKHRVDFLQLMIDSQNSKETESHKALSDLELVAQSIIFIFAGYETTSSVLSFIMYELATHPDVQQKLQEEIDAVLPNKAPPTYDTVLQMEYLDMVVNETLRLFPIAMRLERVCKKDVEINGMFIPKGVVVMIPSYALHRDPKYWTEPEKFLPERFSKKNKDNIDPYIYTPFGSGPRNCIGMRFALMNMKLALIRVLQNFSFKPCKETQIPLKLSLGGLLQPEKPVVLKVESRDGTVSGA
CYP2C9, sequence (P11712 whole entry): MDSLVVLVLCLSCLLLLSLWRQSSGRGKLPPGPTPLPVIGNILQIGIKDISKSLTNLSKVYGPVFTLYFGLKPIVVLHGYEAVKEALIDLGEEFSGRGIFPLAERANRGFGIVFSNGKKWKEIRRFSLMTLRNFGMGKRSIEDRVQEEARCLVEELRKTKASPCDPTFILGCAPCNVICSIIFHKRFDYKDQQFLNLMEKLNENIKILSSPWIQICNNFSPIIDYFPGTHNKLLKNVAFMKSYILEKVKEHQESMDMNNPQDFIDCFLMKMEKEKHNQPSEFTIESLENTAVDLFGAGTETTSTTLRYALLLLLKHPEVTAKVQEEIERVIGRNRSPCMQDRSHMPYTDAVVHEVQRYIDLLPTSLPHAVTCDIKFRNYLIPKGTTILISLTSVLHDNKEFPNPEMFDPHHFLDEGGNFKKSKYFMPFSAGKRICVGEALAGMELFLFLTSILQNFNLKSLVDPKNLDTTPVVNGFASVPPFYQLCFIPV
CYP2D6, sequence (P10635 whole entry): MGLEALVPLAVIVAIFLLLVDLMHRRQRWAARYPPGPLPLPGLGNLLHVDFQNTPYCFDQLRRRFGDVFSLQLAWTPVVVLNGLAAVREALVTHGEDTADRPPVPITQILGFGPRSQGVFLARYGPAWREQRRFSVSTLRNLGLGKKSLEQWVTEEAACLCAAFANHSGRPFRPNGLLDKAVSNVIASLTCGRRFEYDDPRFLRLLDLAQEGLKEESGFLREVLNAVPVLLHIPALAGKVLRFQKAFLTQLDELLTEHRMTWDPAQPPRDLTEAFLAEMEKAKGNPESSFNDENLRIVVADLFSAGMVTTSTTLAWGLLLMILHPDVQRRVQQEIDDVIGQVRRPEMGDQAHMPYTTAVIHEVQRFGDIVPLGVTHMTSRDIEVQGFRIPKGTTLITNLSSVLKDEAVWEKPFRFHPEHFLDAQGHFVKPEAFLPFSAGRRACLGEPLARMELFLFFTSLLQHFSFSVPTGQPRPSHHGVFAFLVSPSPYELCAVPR

## CC(C)Cn1cc(C(C)(C)NS(=O)(=O)C2CC2)c2ccc(-c3ccccc3C(F)(F)F)cc21
[1]
  half-life: 3 min
[2]
  half-life: 80 min

## CC(C)Cn1cc(CCNS(=O)(=O)N(C)C)c2ccc(-c3cncnc3)cc21
[3]
  EC50: 2900 nM

## CC(C)Cn1cc(CCNS(=O)(=O)N(C)C)c2ccc(-c3cnn(C)c3)cc21
[3]
  EC50: > 5000 nM

## CC(C)Cn1cc(CCNS(=O)(=O)N(C)C)c2ccc(-c3cccc(C#N)c3)cc21
[3]
  EC50: 370 nM

## CC(C)Cn1cc(CCNS(=O)(=O)N(C)C)c2ccc(-c3ccccn3)cc21
[3]
  EC50: 1000 nM
CYP3A4
  inhibition at 10 µM: 96%

## CC(C)Cn1cc(CCNS(=O)(=O)N(C)C)c2ccccc21
[3]
  EC50: 990 nM

## CC(C)Cn1cc(CCNS(=O)(=O)N(C)C)c2ccc(-c3cccnc3)cc21
[3]
  EC50: 160 nM
CYP3A4
  inhibition at 10 µM: 96%

## CC(C)Cn1cc(C(C)NS(=O)(=O)C2CC2)c2ccc(-c3ccccc3C(F)(F)F)cc21 (stereo not given)
[3]
  EC50: 7 nM
[1]
  half-life: 10 min
[2]
  half-life: 9 min

## CC(C)Cn1cc(CCNS(=O)(=O)N(C)C)c2ccc(-c3ccc(F)cc3)cc21
[3]
  EC50: 790 nM

## CC(C)Cn1cc(CCNS(=O)(=O)C2CC2)c2ccc(-c3ccncc3)cc21
[3]
  EC50: 25 nM

## CC(C)Cn1cc(CCNS(=O)(=O)N(C)C)c2ccc(-c3ccccc3)cc21
CYP3A4
  inhibition at 10 µM: 22%

## CC(C)Cn1cc(CCNS(=O)(=O)C2CC2)c2ccc(-c3ccccc3C(F)(F)F)cc21
[1]
  half-life: 3 min
[2]
  half-life: 4 min

## CC(C)Cn1cc(C(NS(=O)(=O)C2CC2)C(F)(F)F)c2ccc(-c3ccccc3C(F)(F)F)cc21 (stereo not given)
[3]
  EC50: 110 nM
[1]
  half-life: 32 min
[2]
  half-life: 76 min
CYP3A4
  inhibition at 10 µM: < 30%
[4]
  Cmax: 12.2 µM
[5]
  Cmax: ~0.8 µM
[6]
  EC50: 500 nM
[7]
  Activity: inactive
CYP2D6
  inhibition at 10 µM: < 30%
CYP1A2
  inhibition at 10 µM: < 30%
CYP2C9
  inhibition at 10 µM: < 30%
Mus musculus [8]
  Activity: Active
Mus musculus [9]
  Activity: Active
[10]
  Activity: Non-Toxic
Mus musculus [11]
  Activity: Active
Mus musculus [12]
  Activity: Active
Mus musculus [13]
  Activity: Active
Mus musculus [14]
  Activity: Active
Th17
  Activity: Active
[15]
  Activity: Non-Toxic

## CC(C)Cn1cc(CNS(=O)(=O)C2CC2)c2ccc(-c3ccccc3C(F)(F)F)cc21
[1]
  half-life: 5 min
[2]
  half-life: 5 min
